The results in this text go back to ChEMBL document CHEMBL1135381, “Synthesis and structure-activity relationship of 2-(aminoalkyl)-2,3,3a,8-tetrahydrodibenzo[c,f]isoxazolo[2,3-a]azepine derivatives: a novel series of 5-HT(2A/2C) receptor antagonists. Part 2” (Bioorg Med Chem Lett, 2002).

For test [1], the target named is 5-hydroxytryptamine receptor 2A (Homo sapiens, UniProt P28223). As to the kind of experiment: Binding affinity at human cloned 5-hydroxytryptamine 2A receptor expressed in L929 cells by [125I]R91150 displacement. It is filed as cell-based.
Chain of 5-hydroxytryptamine receptor 2A (P28223 whole entry): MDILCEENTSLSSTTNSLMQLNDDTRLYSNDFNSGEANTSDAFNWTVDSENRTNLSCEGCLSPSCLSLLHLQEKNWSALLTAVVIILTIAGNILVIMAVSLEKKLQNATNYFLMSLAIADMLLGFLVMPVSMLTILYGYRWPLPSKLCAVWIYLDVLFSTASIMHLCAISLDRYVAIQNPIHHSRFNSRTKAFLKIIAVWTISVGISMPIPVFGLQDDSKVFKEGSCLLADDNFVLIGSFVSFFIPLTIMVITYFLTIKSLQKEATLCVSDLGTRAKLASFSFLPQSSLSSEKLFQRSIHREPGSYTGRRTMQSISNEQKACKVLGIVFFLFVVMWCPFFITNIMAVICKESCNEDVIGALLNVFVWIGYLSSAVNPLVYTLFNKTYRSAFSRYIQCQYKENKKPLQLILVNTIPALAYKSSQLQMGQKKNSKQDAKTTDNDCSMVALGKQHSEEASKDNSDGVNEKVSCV
The target in test [2] is T1, 5-hydroxytryptamine receptor 1A (Homo sapiens, UniProt P08908).
T1 sequence (P08908 whole entry): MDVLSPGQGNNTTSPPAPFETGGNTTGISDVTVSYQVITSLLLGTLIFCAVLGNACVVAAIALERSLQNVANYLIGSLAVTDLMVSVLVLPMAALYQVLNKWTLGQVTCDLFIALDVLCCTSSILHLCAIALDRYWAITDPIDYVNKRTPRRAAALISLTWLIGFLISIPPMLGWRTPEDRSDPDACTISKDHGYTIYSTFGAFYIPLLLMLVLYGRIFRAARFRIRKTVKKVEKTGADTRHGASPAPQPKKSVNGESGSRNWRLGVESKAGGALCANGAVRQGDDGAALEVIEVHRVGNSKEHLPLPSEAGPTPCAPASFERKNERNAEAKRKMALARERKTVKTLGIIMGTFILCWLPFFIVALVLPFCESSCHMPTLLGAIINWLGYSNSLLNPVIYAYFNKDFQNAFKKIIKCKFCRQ
The experiment in a line: Binding affinity for human cloned 5-hydroxytryptamine 1A receptor.

Test [3] has as its target 5-hydroxytryptamine receptor 1D (Homo sapiens, UniProt P28221). The experiment in a line: Binding affinity for human cloned 5-hydroxytryptamine 1D receptor.
For another test, the target named is T2, D(4) dopamine receptor (Homo sapiens, UniProt P21917).
T2 sequence (P21917 whole entry): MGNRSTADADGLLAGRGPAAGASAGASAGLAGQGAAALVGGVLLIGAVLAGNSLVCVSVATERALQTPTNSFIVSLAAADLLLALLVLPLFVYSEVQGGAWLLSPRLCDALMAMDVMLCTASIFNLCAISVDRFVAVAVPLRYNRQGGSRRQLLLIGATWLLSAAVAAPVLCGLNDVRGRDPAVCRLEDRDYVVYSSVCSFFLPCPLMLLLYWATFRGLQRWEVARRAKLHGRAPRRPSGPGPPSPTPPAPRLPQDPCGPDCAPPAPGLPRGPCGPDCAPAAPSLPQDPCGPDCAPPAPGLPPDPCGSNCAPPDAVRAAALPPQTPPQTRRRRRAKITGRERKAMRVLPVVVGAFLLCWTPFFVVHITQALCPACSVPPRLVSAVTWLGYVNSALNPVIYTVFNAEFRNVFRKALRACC
The experiment in a line: Binding affinity for human cloned Dopamine receptor D4.

Test [4] concerns the target T3, Alpha-2A adrenergic receptor (Homo sapiens, UniProt P08913).
T3 sequence (P08913 whole entry): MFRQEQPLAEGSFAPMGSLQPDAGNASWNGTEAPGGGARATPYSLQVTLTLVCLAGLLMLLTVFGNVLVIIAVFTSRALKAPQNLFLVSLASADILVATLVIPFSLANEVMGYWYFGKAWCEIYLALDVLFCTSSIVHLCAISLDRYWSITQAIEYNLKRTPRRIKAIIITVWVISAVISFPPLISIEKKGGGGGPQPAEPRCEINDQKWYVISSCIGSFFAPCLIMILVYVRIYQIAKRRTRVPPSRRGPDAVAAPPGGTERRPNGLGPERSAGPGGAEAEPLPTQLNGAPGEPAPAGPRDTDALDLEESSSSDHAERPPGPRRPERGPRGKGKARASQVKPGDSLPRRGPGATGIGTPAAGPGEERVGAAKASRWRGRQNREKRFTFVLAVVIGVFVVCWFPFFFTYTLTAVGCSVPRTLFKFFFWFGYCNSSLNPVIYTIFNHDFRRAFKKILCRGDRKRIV
As to the kind of experiment: Binding affinity for human cloned Alpha-2A adrenergic receptor.

Test [5] deals with Serotonin 3 (5-HT3) receptor. As to the kind of experiment: Binding affinity for human cloned 5-hydroxytryptamine 3 receptor. It is filed as protein-complex assay.
The test system of a further test is Rattus norvegicus. As to the kind of experiment: In vivo activity in mCPP challenge test were performed in male Wistar rats by subcutaneous administration. It is filed as functional. The settings on record: sc.
For test [6], the target named is T4, Alpha-2C adrenergic receptor (Homo sapiens, UniProt P18825).
T4 sequence (P18825 whole entry): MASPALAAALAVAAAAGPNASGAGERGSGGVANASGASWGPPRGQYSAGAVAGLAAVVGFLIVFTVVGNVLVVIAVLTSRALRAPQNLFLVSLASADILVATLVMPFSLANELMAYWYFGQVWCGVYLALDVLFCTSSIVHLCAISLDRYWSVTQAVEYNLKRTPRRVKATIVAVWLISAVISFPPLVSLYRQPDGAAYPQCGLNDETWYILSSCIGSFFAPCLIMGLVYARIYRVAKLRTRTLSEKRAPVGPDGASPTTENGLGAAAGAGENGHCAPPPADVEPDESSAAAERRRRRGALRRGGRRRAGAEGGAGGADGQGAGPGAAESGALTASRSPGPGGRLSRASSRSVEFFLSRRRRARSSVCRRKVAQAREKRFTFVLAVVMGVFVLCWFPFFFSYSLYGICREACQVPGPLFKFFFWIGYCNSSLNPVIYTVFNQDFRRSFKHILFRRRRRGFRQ
As to the kind of experiment: Binding affinity for human cloned Alpha-2C adrenergic receptor.

For test [7], the target named is T5, 5-hydroxytryptamine receptor 2C (Rattus norvegicus) (UniProt P08909).
T5 sequence (whole entry): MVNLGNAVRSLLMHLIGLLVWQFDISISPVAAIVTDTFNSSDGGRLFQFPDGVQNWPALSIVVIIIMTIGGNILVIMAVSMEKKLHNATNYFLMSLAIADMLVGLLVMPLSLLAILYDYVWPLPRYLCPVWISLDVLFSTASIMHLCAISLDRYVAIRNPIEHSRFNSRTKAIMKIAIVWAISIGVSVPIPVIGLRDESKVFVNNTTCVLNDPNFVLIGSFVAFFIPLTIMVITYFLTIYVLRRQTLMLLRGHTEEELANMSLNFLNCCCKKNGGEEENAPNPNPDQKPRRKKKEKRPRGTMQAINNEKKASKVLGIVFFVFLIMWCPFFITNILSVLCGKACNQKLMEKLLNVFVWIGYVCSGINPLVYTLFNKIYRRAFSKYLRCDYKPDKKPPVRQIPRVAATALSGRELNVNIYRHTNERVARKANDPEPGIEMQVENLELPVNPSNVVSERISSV
As to the kind of experiment: In vivo activity in rat mCPP challenge test following p.o. administration. It is filed as functional, organism-based.

The target in a further test is D(3) dopamine receptor (Homo sapiens, UniProt P35462). The experiment in a line: Binding affinity for human cloned Dopamine receptor D3.
Chain of D(3) dopamine receptor (P35462 whole entry): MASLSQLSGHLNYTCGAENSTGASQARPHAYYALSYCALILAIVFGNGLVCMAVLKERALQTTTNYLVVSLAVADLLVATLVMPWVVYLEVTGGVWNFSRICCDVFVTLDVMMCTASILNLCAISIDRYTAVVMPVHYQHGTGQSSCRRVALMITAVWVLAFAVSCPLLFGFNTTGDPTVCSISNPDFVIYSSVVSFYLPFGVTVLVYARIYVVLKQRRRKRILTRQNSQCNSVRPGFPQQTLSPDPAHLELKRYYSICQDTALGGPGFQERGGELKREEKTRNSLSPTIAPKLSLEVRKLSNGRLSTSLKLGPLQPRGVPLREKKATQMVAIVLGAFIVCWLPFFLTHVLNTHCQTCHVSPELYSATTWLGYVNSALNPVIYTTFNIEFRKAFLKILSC
The target in another test is D(2) dopamine receptor (Rattus norvegicus, UniProt P61169). As to the kind of experiment: Binding affinity for rat Dopamine receptor D2.
Chain of D(2) dopamine receptor (P61169 whole entry): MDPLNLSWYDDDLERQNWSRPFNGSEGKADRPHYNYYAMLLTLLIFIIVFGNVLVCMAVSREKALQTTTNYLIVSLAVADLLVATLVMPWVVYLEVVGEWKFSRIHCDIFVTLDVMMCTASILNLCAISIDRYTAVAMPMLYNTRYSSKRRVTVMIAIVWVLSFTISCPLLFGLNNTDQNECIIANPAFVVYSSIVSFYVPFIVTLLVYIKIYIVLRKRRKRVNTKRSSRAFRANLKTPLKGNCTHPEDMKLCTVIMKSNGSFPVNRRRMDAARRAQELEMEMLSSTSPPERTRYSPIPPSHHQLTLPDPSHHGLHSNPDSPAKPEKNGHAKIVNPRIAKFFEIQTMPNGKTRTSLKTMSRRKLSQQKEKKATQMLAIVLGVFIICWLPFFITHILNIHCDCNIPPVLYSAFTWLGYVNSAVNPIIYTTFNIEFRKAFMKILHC
For the next test, the target named is Histamine H1 receptor (Homo sapiens, UniProt P35367). The experiment in a line: Binding affinity at human cloned Histamine H1 receptor expressed in CHO cells by [3H]pyrilamine displacement. It is filed as cell-based.
Chain of Histamine H1 receptor (P35367 whole entry): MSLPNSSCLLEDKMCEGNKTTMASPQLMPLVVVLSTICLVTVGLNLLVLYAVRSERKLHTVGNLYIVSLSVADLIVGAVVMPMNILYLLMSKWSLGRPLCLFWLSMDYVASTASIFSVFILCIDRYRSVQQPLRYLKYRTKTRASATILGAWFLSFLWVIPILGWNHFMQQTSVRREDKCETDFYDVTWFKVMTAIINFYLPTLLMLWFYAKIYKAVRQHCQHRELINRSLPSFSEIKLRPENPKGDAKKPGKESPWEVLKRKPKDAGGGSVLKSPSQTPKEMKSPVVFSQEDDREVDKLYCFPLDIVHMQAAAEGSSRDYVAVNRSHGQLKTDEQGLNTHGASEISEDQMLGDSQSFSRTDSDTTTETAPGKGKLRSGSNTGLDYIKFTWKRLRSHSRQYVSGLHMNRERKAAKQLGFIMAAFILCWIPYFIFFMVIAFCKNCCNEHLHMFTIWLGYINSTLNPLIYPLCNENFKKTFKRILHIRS
Test [8] concerns the target T6, 5-hydroxytryptamine receptor 2C (Homo sapiens, UniProt P28335).
T6 sequence (P28335 whole entry): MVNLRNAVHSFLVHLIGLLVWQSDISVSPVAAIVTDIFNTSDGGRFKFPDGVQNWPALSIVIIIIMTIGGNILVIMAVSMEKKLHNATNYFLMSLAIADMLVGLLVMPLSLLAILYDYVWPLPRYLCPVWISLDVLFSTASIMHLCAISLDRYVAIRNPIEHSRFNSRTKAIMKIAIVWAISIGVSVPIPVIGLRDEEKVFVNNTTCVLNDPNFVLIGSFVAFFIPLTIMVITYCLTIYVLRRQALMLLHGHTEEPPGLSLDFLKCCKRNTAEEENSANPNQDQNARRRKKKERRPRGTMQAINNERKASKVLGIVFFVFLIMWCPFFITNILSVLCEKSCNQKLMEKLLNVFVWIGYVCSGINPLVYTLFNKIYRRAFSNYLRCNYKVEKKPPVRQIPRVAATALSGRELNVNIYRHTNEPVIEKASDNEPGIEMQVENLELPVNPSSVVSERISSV
As to the kind of experiment: Binding affinity at human cloned 5-hydroxytryptamine 2C receptor expressed in CHO cells by [3H]mesulergine displacement. It is filed as cell-based.

Chain of 5-hydroxytryptamine receptor 1D (P28221 whole entry): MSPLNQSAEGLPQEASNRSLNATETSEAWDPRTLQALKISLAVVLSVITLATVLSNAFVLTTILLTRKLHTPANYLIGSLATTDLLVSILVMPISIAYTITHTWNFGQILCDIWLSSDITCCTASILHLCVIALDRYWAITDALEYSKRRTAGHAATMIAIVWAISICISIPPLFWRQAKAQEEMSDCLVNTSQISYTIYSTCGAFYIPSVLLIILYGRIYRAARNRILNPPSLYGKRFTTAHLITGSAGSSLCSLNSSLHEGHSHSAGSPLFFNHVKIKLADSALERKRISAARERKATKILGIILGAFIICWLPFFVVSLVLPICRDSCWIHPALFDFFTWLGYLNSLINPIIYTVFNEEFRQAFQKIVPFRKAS

`CN(C)CC1CC2c3cc(F)ccc3Cc3ccc(F)cc3N2O1` (configuration not stated): the IC50 – broadly, the concentration that gives 50% inhibition – in test [1] is 10.7 nM; in [2] it was greater than 1000 nM; in test [3], greater than 1000 nM; at D(4) dopamine receptor, greater than 1000 nM; in test [4] it was greater than 1000 nM; in test [6], greater than 1000 nM. At D(3) dopamine receptor, this molecule had an IC50 greater than 1000 nM. Further, the negative logarithm of the IC50 (pIC50) – broadly, −log10 of the IC50, conventionally taken in molar units – in [5] is on record as less than 6. In addition, the ED50 (as a rule, the midpoint of the dose-response relation) in the test on Rattus norvegicus was 0.04 mg/kg; in test [7], 0.63 mg/kg.

For the molecule `Cc1ccc2c(c1)N1OC(CN(C)C)CC1c1ccccc1C2` (configuration not stated), the IC50 (on D(2) dopamine receptor; in [2]; in [3]; at D(4) dopamine receptor; in test [4]; in test [6]) was greater than 1000 nM in each case. The molecule further showed an IC50 at D(3) dopamine receptor greater than 1000 nM. Further, the pIC50 in [5] is reported as less than 6. Further, the ED50 in the test on Rattus norvegicus amounted to 0.16 mg/kg; in test [7], 2.5 mg/kg.

In turn, `Cc1cccc2c1C1CC(CN(C)C)ON1c1ccccc1C2` (configuration not stated) registered an ED50 in test [7] greater than 2.5 mg/kg.

`CN(C)CC1CC2c3cccc(F)c3Cc3ccccc3N2O1` (configuration not stated) gave a concentration for half-maximal inhibition (IC50) in test [1] of 31.6 nM. For the same molecule, the ED50 (in the test with Rattus norvegicus; in [7]) was 2.5 mg/kg each time.

`CN(C)CC1CC2c3ccccc3Cc3ccc(Br)cc3N2O1` (configuration not stated) displayed a 50% effective dose (ED50) in test [7] of 2.5 mg/kg.

Turning to `CN(C)CC1CC2c3ccccc3Cc3ccccc3N2O1` (configuration not stated), the results for the ED50 (in the test with Rattus norvegicus; in test [7]) were 0.04 mg/kg and 0.63 mg/kg, respectively.

For the molecule `CN(C)CC1CC2c3ccc(Cl)cc3Cc3ccccc3N2O1` (configuration not stated), the ED50 with Rattus norvegicus is greater than 2.5 mg/kg.

Turning to `CN(C)CC1CC2c3ccccc3Cc3c(F)cccc3N2O1` (configuration not stated), the ED50 in test [7] was 2.5 mg/kg.

Take `Cc1cccc2c1Cc1ccccc1C1CC(CN(C)C)ON21` (configuration not stated): the ED50 in [7] was greater than 2.5 mg/kg.

As to `CN(C)CC1CC2c3c(cccc3C(F)(F)F)Cc3ccccc3N2O1` (configuration not stated), the ED50 with Rattus norvegicus is 2.5 mg/kg; in test [7], greater than 2.5 mg/kg.

As for `CN(C)CC1CC2c3ccccc3Cc3ccc(F)cc3N2O1` (configuration not stated), the concentration for half-maximal inhibition (IC50) on D(2) dopamine receptor is greater than 1000 nM; in test [1] it was 1.15 nM. Further, in [5], the pIC50 is less than 6. Besides, it took a dose of 2.5 mg/kg to reach the 50% effect level in test [7] (ED50).

For `CN(C)CC1CC2c3cccc(C(F)(F)F)c3Cc3ccccc3N2O1` (configuration not stated), the ED50 in [7] was greater than 2.5 mg/kg.

As to `COc1ccc2c(c1)C1CC(CN(C)C)ON1c1ccccc1C2` (configuration not stated), the ED50 in test [7] was greater than 2.5 mg/kg.

As for `CN(C)CC1CC2c3ccccc3Cc3ccc(-c4ccccc4)cc3N2O1` (configuration not stated), the ED50 (in the test with Rattus norvegicus; in test [7]) was greater than 2.5 mg/kg in each case.

`CN(C)CC1CC2c3cccc(Cl)c3Cc3ccccc3N2O1` (configuration not stated): the half-maximal inhibitory concentration (IC50) (at Histamine H1 receptor; in [1]; in test [8]) was greater than 1000 nM in each case. In addition, in test [7], the ED50 was greater than 2.5 mg/kg.

Consider `CN(C)CC1CC2c3c(F)cccc3Cc3ccccc3N2O1` (configuration not stated), for which the half-inhibitory concentration (IC50) (on Histamine H1 receptor; in test [1]; in test [8]) was greater than 1000 nM throughout. The molecule further registered an ED50 in the test with Rattus norvegicus greater than 2.5 mg/kg.

Consider `CN(C)CC1CC2c3ccccc3Cc3cccc(Cl)c3N2O1` (configuration not stated), for which, in test [7], the ED50 is greater than 2.5 mg/kg.

As for `CN(C)CC1CC2c3cc(F)ccc3Cc3ccccc3N2O1` (configuration not stated), the ED50 (in the test with Rattus norvegicus; in test [7]) was greater than 2.5 mg/kg throughout.

In the case of `CN(C)CC1CC2c3cc(C(F)(F)F)ccc3Cc3ccccc3N2O1` (configuration not stated), the IC50 (at Histamine H1 receptor; in test [1]; in [8]) was greater than 1000 nM in each case. Also, the results for the ED50 (in the test with Rattus norvegicus; in test [7]) were 2.5 mg/kg and greater than 2.5 mg/kg, respectively.

Molecule `CN(C)CC1CC2c3ccccc3Cc3cc(F)ccc3N2O1` (configuration not stated) gave an ED50 in test [7] of 2.5 mg/kg.

In test [1], `Cc1ccc2c(c1)Cc1ccccc1N1OC(CN(C)C)CC21` (configuration not stated) showed a half-inhibitory concentration (IC50) of 10.5 nM. This molecule had an ED50 in test [7] of 2.5 mg/kg.

In turn, `CN(C)CC1CC2c3ccccc3Cc3ccc(Cl)cc3N2O1` (configuration not stated) registered a pIC50 in [5] of 6.32. In addition, the ED50 is 0.16 mg/kg in the test with Rattus norvegicus and 0.63 mg/kg in test [7].
